Values quoted from earlier work in patent US9763439B2, “Method of packaging food” (Universidad de Santiago de Chile, priority 2013, dated 2017).

Conditions: thermoforming process (±140° C.) does not affect its stability

In the case of `C/C=C/C=C/C(=O)[O-].[K+]` [potassium sorbate], the temperature withstood is listed as “up to 270 °C”.
